Results as given in patent US8022206B2 (OSI Pharmaceuticals, LLC, priority 2008, dated 2011).
Like-named read-outs stand apart in the source and are kept apart here.

Legend:
RON (human) = RON (human) (Homo sapiens, UniProt Q04912); assay: RON (human) AlphaScreen kinase assay, Km of ATP; format: biochemical
Procedure, shortened: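 Detection used PT66 AlphaScreen beads added in Tris pH 7.5/NaCl/EDTA/BSA buffer, read after 1 h incubation. Vehicle-only DMSO wells served as controls.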

MET (human) = MET (human) (Homo sapiens, UniProt P08581); assay: MET (human) AlphaScreen kinase assay, Km of ATP; format: biochemical
Procedure, shortened: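 Human MET at lot-optimised concentration in 50 mM Tris pH 7.4 buffer with 1 mM DTT, compound at 1% DMSO final; enzyme starts the reaction, 60 min at RT.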

[1] = AlphaScreen, Km of ATP, read-out: RON biochemical IC50
[2] = AlphaScreen, Km of ATP, read-out: Met biochemical IC50

Chain of MET (human) (P08581 25-1390): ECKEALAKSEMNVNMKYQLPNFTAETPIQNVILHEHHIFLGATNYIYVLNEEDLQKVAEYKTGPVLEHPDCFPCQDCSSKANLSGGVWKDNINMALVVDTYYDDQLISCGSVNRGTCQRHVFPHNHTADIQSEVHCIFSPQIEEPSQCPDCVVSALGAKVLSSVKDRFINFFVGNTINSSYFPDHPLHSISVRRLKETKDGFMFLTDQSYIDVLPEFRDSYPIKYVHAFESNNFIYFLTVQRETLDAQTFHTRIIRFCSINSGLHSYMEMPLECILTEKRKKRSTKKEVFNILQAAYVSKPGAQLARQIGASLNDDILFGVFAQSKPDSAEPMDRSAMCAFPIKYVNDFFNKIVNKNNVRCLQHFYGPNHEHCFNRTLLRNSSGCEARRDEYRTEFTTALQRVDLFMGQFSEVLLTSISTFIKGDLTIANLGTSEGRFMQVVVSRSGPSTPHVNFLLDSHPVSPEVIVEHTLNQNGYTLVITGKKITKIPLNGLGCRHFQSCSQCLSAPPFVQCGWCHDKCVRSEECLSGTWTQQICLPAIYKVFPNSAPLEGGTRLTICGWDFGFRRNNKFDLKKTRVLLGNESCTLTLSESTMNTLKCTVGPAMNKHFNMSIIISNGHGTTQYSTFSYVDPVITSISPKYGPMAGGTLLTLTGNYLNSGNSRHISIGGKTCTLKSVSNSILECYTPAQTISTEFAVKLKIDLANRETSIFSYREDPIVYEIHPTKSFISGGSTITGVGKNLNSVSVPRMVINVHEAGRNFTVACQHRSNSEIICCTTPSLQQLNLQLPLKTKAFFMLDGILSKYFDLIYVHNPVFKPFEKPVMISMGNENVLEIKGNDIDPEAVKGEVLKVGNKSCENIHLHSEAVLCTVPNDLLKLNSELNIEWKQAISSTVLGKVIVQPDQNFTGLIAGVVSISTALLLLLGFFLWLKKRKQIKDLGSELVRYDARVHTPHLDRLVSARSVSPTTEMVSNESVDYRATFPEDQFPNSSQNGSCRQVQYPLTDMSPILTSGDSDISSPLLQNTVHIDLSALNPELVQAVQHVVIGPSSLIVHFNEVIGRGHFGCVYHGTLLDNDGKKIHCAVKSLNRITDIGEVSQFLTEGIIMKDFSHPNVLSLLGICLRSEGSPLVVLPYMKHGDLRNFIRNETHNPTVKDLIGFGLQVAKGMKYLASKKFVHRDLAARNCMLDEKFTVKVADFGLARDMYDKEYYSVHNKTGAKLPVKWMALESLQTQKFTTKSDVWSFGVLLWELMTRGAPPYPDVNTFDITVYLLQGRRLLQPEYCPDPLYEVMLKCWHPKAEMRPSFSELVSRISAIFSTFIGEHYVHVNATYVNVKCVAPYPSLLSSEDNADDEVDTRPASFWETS
Chain of RON (human) (Q04912 25-1400): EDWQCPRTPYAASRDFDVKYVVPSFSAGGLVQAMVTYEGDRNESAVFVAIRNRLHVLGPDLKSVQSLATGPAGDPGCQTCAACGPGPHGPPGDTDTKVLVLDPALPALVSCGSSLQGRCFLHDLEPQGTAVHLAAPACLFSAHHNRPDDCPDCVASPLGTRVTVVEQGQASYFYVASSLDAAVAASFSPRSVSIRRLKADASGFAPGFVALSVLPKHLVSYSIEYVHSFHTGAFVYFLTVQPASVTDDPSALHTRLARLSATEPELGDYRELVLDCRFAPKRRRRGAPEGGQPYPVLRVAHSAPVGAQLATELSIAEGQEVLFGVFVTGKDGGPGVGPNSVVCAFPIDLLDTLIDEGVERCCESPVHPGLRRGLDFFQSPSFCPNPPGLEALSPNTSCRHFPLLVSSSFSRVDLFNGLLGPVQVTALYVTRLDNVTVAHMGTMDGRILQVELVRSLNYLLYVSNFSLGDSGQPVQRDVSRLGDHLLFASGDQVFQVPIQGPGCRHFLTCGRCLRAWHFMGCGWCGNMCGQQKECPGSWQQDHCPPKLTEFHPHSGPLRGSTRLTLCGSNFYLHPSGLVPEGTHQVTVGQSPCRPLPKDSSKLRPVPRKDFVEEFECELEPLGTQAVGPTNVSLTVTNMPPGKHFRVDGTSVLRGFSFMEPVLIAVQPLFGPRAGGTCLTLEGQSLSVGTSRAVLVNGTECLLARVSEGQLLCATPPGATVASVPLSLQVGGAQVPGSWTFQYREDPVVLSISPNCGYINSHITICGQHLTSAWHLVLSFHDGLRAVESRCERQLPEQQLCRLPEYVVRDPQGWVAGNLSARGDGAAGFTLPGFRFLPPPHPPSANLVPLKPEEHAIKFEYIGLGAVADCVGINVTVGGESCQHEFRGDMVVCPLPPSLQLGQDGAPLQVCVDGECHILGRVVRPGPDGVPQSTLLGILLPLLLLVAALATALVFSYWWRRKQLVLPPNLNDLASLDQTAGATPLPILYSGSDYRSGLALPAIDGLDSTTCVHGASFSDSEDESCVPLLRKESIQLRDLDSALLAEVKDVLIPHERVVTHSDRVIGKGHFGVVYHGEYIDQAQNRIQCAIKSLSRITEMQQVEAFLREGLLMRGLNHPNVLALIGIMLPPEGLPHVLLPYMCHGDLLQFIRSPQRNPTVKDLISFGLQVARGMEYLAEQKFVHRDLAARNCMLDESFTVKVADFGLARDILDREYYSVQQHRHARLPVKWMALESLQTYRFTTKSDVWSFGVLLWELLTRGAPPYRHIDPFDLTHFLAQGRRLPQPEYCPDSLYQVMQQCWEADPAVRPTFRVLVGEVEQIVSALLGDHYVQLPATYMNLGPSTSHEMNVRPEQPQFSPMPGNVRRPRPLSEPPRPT

SMILES | IC50 (RON (human); [1]) [µM] | IC50 (MET (human); [2]) [µM] | IC50 (RON (human)) [µM] | IC50 (MET (human)) [µM]
C[C@@H](Oc1c(N)ncc2c(C3=CCN(C(=O)C(C)(C)O)CC3)coc12)c1c(Cl)ccc(F)c1Cl [Example 228, 1-(4-{6-Amino-7-[(R)-1-(2,6-dichloro-3-fluorophenyl)ethoxy]-furo[3,2-c]pyridin-3-yl}-3,6-dihydro-2H-pyridin-1-yl)-2-hydroxy-2-methylpropan-β-one] | 0.5 to 5 | 0.5 to 5 | – | –
CC(=O)c1ccc(-c2coc3c(O[C@H](C)c4c(Cl)ccc(F)c4Cl)c(N)ncc23)s1 [Example 114, 1-(5-{6-Amino-7-[(R)-1-(2,6-dichloro-3-fluorophenyl)ethoxy]furo[3,2-c]pyridin-3-yl}thiophen-2-yl)ethanone] | 0.5 to 5 | 0.5 to 5 | – | –
C[C@@H](Oc1c(N)ncc2c(-c3ccc(C(=O)NCCN(C)C)cc3)coc12)c1c(Cl)ccc(F)c1Cl [Example 71, 4-{6-Amino-7-[(R)-1-(2,6-dichloro-3-fluorophenyl)ethoxy]-furo[3,2-c]pyridin-3-yl}-N-(2-dimethylaminoethyl)benzamide] | < 0.5 | < 0.5 | – | –
C[C@@H](Oc1c(N)ncc2c(C3=CCN(C4CNC4)CC3)coc12)c1c(Cl)ccc(F)c1Cl [Example 322, 3-(1-Azetidin-3-yl-1,2,3,6-tetrahydropyridin-4-yl)-7-[(R)-1-(2,6-dichloro-3-fluorophenyl)ethoxy]furo[3,2-c]pyridin-6-ylamine] | < 0.5 | < 0.5 | – | –
CC(Cc1cccc(F)c1)Oc1c(N)ncc2c(-c3cnn(C4CCNCC4)c3)coc12 (stereo not shown) [Example 424, 7-[2-(3-Fluorophenyl)-1-methylethoxy]-3-(1-piperidin-4-yl-1H-pyrazol-4-yl)furo[3,2-c]pyridin-6-ylamine] | 0.5 to 5 | < 0.5 | – | –
C[C@@H](Oc1c(N)ncc2c(-c3ccc(NCCN4CCOCC4)nc3)coc12)c1c(Cl)ccc(F)c1Cl [Example 104, 7-[(R)-1-(2,6-Dichloro-3-fluorophenyl)ethoxy]-3-[6-(2-morpholin-4-yl-ethylamino)pyridin-3-yl]furo[3,2-c]pyridin-6-ylamine] | 0.5 to 5 | < 0.5 | – | –
C=C(C)CC(Oc1c(N)ncc2c(-c3cnn(C4CCNCC4)c3)coc12)c1c(Cl)cccc1Cl (stereo not shown) [Example 363, 7-[1-(2,6-Dichlorophenyl)-3-methylbut-3-enyloxy]-3-(1-piperidin-4-yl-1H-pyrazol-4-yl)furo[3,2-c]pyridin-6-ylamine] | 0.5 to 5 | 0.5 to 5 | – | –
C[C@@H](Oc1c(N)ncc2c(C3=CCN(C(=O)[C@@H](N)Cc4cnc[nH]4)CC3)coc12)c1c(Cl)ccc(F)c1Cl [Example 263, (2S)-2-Amino-1-[4-{6-amino-7-[(1R)-1-(2,6-dichloro-3-fluoro-phenyl)ethoxy]furo[3,2-c]pyridin-3-yl}-3,6-dihydropyridin-1(2H)-yl]-3-(1H-imidazol-5-yl)propan-1-one] | < 0.5 | < 0.5 | – | –
CNC(=O)c1cccc(-c2coc3c(O[C@H](C)c4c(Cl)ccc(F)c4Cl)c(N)ncc23)c1 [Example 68, 3-{6-Amino-7-[(R)-1-(2,6-dichloro-3-fluorophenyl)ethoxy]-furo[3,2-c]pyridin-3-yl}-N-methylbenzamide] | 0.5 to 5 | 0.5 to 5 | – | –
C[C@@H](Oc1c(N)ncc2c(C3=CCN(C)CC3)coc12)c1c(Cl)ccc(F)c1Cl [Example 37, 7-[(R)-1-(2,6-Dichloro-3-fluorophenyl)-ethoxy]-3-(1-methyl-1,2,3,6-tetrahydropyridin-4-yl)-furo[3,2-c]pyridin-6-ylamine] | < 0.5 | < 0.5 | – | –
CCOC(=O)N1CC=C(c2coc3c(O[C@H](C)c4c(Cl)ccc(F)c4Cl)c(N)ncc23)CC1 [Example 51, 4-{6-Amino-7-[(R)-1-(2,6-dichloro-3-fluorophenyl)-ethoxy]-furo[3,2-c]pyridin-3-yl}-3,6-dihydro-2H-pyridine-1-carboxylic acid ethyl ester] | 0.5 to 5 | 0.5 to 5 | – | –
C[C@@H](Oc1c(N)ncc2c(C3=CCN(C(=O)Nc4ccccc4F)CC3)coc12)c1c(Cl)ccc(F)c1Cl [Example 150, 4-{6-Amino-7-[(1R)-1-(2,6-dichloro-3-fluorophenyl)ethoxy]furo[3,2-c]pyridin-3-yl}-N-(2-fluorophenyl)-3,6-dihydropyridine-1(2H)-carboxamide] | 0.5 to 5 | 0.5 to 5 | – | –
C[C@@H](Oc1c(N)ncc2c(-c3ccc(N4CCOCC4)nc3)coc12)c1c(Cl)ccc(F)c1Cl [Example 107, 7-[(R)-1-(2,6-Dichloro-3-fluorophenyl)ethoxy]-3-(6-morpholin-4-ylpyridin-3-yl)-furo[3,2-c]pyridin-6-ylamine] | 0.5 to 5 | 0.5 to 5 | – | –
C[C@@H](Oc1c(N)ncc2c(C3=CCN(C4CN(S(C)(=O)=O)C4)CC3)coc12)c1c(Cl)ccc(F)c1Cl [Example 323] | 0.5 to 5 | 0.5 to 5 | – | –
C[C@@H](Oc1c(N)ncc2c(-c3cc(C(=O)N4CCN(C)CC4)cs3)coc12)c1c(Cl)ccc(F)c1Cl [Example 332, (5-{6-Amino-7-[(R)-1-(2,6-dichloro-3-fluorophenyl)ethoxy]furo[3,2-c]pyridin-3-yl}thiophen-3-yl)-(4-methylpiperazin-1-yl)methanone] | 5 to 20 | 0.5 to 5 | – | –
CC(Cc1ccccc1C(F)(F)F)Oc1c(N)ncc2c(-c3cnn(C4CCNCC4)c3)coc12 (stereo not shown) [Example 435, 7-[1-Methyl-2-(2-trifluoromethylphenyl)ethoxy]-3-(1-piperidin-4-yl-1H-pyrazol-4-yl)furo[3,2-c]pyridin-6-ylamine] | 0.5 to 5 | < 0.5 | – | –
C[C@@H](Oc1c(N)ncc2c(-c3csc(CN4CCC(O)CC4)c3)coc12)c1c(Cl)ccc(F)c1Cl [Example 306, 1-(4-{6-Amino-7-[(R)-1-(2,6-dichloro-3-fluorophenyl)ethoxy]furo[3,2-c]pyridin-3-yl}thiophen-2-ylmethyl)piperidin-4-ol] | < 0.5 | < 0.5 | – | –
C[C@@H](Oc1c(N)ncc2c(-c3ccc(C(=O)N4CCC(=O)CC4)cc3)coc12)c1c(Cl)ccc(F)c1Cl [Example 284, 1-(4-{6-Amino-7-[(R)-1-(2,6-dichloro-3-fluorophenyl)-ethoxy]furo[3,2-c]pyridin-3-yl}benzoyl)piperidin-4-one] | – | – | 0.5 to 5 | 0.5 to 5
CC(Oc1c(N)ncc2c(-c3cnn(C4CCNCC4)c3)coc12)c1c(Cl)c(F)cc(OCCN(C)C)c1Cl (stereo not shown) [Example 157, 7-(1-{2,6-Dichloro-3-[2-(dimethylamino)ethoxy]-5-fluorophenyl}ethoxy)-3-[1-(piperidin-4-yl)-1H-pyrazol-4-yl]furo[3,2-c]pyridin-6-amine] | < 0.5 | < 0.5 | – | –
C[C@@H](Oc1c(N)ncc2c(-c3cnn(C4CCNCC4)c3)coc12)c1ccncc1 [Example 397, 3-(1-Piperidin-4-yl-1H-pyrazol-4-yl)-7-((R)-1-pyridin-4-yl-ethoxy)furo[3,2-c]pyridin-6-ylamine] | 0.5 to 5 | 0.5 to 5 | – | –
C[C@@H](Oc1c(N)ncc2c(-c3ccnc(N4CCN(C)CC4)c3)coc12)c1c(Cl)ccc(F)c1Cl [Example 89, 7-[(R)-1-(2,6-Dichloro-3-fluorophenyl)ethoxy]-3-[2-(4-methylpiperazin-1-yl)pyridin-4-yl]-furo[3,2-c]pyridin-6-ylamine] | < 0.5 | < 0.5 | – | –
C[C@@H](Oc1c(N)ncc2c(-c3ccc(NC(N)=O)cc3)coc12)c1c(Cl)ccc(F)c1Cl [Example 108, (4-{6-Amino-7-[(R)-1-(2,6-dichloro-3-fluorophenyl)ethoxy]furo[3,2-c]pyridin-3-yl}phenyl)urea] | 0.5 to 5 | 0.5 to 5 | – | –
C[C@@H](Oc1c(N)ncc2c(-c3cccc(C(=O)N4CCN(CCO)CC4)c3)coc12)c1c(Cl)ccc(F)c1Cl [Example 98, (3-{6-Amino-7-[(R)-1-(2,6-dichloro-3-fluorophenyl)ethoxy]-furo[3,2-c]pyridin-3-yl}phenyl)-[4-(2-hydroxyethyl)piperazin-1-yl]methanone] | 0.5 to 5 | < 0.5 | – | –
CCS(=O)(=O)Nc1cccc(-c2coc3c(O[C@H](C)c4c(Cl)ccc(F)c4Cl)c(N)ncc23)c1 [Example 245, Ethanesulfonic acid (3-{6-amino-7-[(R)-1-(2,6-dichloro-3-fluorophenyl)ethoxy]-furo[3,2-c]pyridin-3-yl}phenyl)amide] | 0.5 to 5 | 0.5 to 5 | – | –
C[C@@H](Oc1c(N)ncc2c(C3=CCN(CCN)CC3)coc12)c1c(Cl)ccc(F)c1Cl [Example 43, 3-[1-(2-Aminoethyl)-1,2,3,6-tetrahydropyridin-4-yl]-7-[(R)-1-(2,6-dichloro-3-fluorophenyl)ethoxy]-furo[3,2-c]pyridin-6-ylamine] | < 0.5 | < 0.5 | – | –
C[C@@H](Oc1c(N)ncc2c(C(=O)NCCCN(C)C)coc12)c1c(Cl)ccc(F)c1Cl [Example 189, 6-Amino-7-[(R)-1-(2,6-dichloro-3-fluorophenyl)ethoxy]furo[3,2-c]pyridine-3-carboxylic acid (3-dimethylaminopropyl)amide] | 0.5 to 5 | < 0.5 | – | –
CC(Oc1c(N)ncc2c(-c3cnn(C4CCNCC4)c3)coc12)c1c(Cl)cccc1C(F)(F)F (stereo not shown) [Example 365, 7-[1-(2-Chloro-6-trifluoromethylphenyl)ethoxy]-3-(1-piperidin-4-yl-1H-pyrazol-4-yl)furo[3,2-c]pyridin-6-ylamine] | 0.5 to 5 | < 0.5 | – | –
C[C@H](Oc1c(N)ncc2c(-c3cnn(C4CCNCC4)c3)coc12)c1ccncc1 [Example 396, 3-(1-Piperidin-4-yl-1H-pyrazol-4-yl)-7-((S)-1-pyridin-4-yl-ethoxy)furo[3,2-c]pyridin-6-ylamine] | 0.5 to 5 | < 0.5 | – | –
C[C@@H](Oc1c(N)ncc2c(-c3ccc(C(=O)NCCN4CCCCC4)cc3)coc12)c1c(Cl)ccc(F)c1Cl [Example 103, 4-{6-Amino-7-[(R)-1-(2,6-dichloro-3-fluorophenyl)ethoxy]furo[3,2-c]pyridin-3-yl}-N-(2-piperidin-1-ylethyl)benzamide] | 0.5 to 5 | < 0.5 | – | –
